# The source made the active and inactive calls. The rule behind the calls is not given here.
# Legend:
# [1] = test system: Chikungunya virus; assay: Antiviral activity against CHIKV 181/25 expressing nLuc-capsid gene infected in human MRC5 cells assessed as inhibition of viral replication at 40 uM preincubated with cells for 1 hr followed by viral infection measured after 6 hrs post-infection by Nano-glo luciferase assay relative to control; format: functional; details: for inhibition: time 7.0 hrs; for inhibition at 40 µM: 181/25, MRC5, time 7 hrs
# [2] = Aqueous solubility of compound in PBS at pH 7.4; format: physicochemical
# [3] = test system: Chikungunya virus; assay: Inhibition of N-terminal 6-His/SUMO-tagged CHIKV 181/25 nsP2 extracted from Escherichia coli Rosetta 2 at 200 uM preincubated for 30 mins followed by ATP addition measured after 1 hr by ADP-Glo assay relative to control; details: time 90.0 min
# [4] = test system: MRC5; assay: Cytotoxicity against human MRC5 cells at 10 to 40 uM by Cell Titer Glo assay; format: toxicity, cell-based; details: mrc5, 40 µM, dose 10-40 µM
# [5] = test system: Chikungunya virus; assay: Antiviral activity against CHIKV 181/25 expressing nLuc-capsid gene infected in human MRC5 cells assessed as reduction in viral replication preincubated with cells for 1 hr followed by viral infection measured after 6 hrs post-infection by Nano-glo luciferase assay; format: functional, organism-based; details: 181/25, MRC5, read-out: pEC50 (converted)
# [6] = molecular target: Polyprotein P1234 (Chikungunya virus (strain S27-African prototype) (CHIKV)) (UniProt Q8JUX6); assay: (§1) Inhibition of N-terminal 6-His/SUMO-tagged CHIKV 181/25 nsP2 extracted from Escherichia coli Rosetta 2 assessed as decrease in nsP2 helicase activity in presence of RNA duplex composed of 39mer loading RNA strand/19mer displaced RNA strand by gel electrophoresis; details: dose 0.01-100 µM
# Target sequence in this assay (Q8JUX6 536-1333 limits assumed): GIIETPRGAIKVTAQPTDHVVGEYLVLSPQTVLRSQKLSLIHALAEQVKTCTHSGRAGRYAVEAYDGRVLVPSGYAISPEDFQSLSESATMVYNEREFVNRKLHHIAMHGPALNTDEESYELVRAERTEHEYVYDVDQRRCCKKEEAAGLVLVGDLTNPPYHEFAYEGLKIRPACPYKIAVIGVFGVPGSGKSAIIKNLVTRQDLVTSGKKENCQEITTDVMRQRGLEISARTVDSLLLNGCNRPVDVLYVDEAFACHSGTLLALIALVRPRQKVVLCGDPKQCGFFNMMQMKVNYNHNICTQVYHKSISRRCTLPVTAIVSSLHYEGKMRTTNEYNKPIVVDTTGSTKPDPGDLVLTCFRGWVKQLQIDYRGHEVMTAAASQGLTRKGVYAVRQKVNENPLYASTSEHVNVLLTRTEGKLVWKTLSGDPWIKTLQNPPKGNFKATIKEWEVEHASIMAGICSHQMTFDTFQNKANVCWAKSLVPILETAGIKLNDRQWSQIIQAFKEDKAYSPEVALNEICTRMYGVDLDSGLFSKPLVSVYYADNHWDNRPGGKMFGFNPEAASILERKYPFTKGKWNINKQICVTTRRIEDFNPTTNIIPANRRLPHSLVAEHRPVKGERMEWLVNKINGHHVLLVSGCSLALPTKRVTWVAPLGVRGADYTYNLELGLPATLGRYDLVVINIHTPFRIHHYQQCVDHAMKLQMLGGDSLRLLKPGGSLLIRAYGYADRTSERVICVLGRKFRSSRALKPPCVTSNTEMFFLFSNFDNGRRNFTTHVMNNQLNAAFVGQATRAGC
# [7] = molecular target: T1, Polyprotein P1234 (Chikungunya virus (strain S27-African prototype) (CHIKV), UniProt Q8JUX6); assay: as §1
# [8] = test system: Chikungunya virus; assay: (§2) Anti-viral activity against CHIKV infected in human NHDF cells assessed as reduction in viral titer incubated with cells for 1 hr followed by viral infection for 2 hrs and subsequent replacement of fresh media with compound measured after 24 hrs post-infection by extracting viral supernatant from cells and transferring supernatant to African geen monkey Vero cells for measuring plaque formation; format: functional, organism-based; details: dose 0.01-100 µM, time 25.0 hrs
# [9] = molecular target: Polyprotein P1234 (Chikungunya virus (strain S27-African prototype) (CHIKV)) (UniProt Q8JUX6); assay: Binding affinity to N-terminal 6-His/SUMO-tagged CHIKV 181/25 nsP2 extracted from Escherichia coli Rosetta 2 assessed as unchanged Km up to 2.5 uM in presence of [alpha-32P]-ATP by TLC method
# Target sequence in this assay (Q8JUX6 whole entry): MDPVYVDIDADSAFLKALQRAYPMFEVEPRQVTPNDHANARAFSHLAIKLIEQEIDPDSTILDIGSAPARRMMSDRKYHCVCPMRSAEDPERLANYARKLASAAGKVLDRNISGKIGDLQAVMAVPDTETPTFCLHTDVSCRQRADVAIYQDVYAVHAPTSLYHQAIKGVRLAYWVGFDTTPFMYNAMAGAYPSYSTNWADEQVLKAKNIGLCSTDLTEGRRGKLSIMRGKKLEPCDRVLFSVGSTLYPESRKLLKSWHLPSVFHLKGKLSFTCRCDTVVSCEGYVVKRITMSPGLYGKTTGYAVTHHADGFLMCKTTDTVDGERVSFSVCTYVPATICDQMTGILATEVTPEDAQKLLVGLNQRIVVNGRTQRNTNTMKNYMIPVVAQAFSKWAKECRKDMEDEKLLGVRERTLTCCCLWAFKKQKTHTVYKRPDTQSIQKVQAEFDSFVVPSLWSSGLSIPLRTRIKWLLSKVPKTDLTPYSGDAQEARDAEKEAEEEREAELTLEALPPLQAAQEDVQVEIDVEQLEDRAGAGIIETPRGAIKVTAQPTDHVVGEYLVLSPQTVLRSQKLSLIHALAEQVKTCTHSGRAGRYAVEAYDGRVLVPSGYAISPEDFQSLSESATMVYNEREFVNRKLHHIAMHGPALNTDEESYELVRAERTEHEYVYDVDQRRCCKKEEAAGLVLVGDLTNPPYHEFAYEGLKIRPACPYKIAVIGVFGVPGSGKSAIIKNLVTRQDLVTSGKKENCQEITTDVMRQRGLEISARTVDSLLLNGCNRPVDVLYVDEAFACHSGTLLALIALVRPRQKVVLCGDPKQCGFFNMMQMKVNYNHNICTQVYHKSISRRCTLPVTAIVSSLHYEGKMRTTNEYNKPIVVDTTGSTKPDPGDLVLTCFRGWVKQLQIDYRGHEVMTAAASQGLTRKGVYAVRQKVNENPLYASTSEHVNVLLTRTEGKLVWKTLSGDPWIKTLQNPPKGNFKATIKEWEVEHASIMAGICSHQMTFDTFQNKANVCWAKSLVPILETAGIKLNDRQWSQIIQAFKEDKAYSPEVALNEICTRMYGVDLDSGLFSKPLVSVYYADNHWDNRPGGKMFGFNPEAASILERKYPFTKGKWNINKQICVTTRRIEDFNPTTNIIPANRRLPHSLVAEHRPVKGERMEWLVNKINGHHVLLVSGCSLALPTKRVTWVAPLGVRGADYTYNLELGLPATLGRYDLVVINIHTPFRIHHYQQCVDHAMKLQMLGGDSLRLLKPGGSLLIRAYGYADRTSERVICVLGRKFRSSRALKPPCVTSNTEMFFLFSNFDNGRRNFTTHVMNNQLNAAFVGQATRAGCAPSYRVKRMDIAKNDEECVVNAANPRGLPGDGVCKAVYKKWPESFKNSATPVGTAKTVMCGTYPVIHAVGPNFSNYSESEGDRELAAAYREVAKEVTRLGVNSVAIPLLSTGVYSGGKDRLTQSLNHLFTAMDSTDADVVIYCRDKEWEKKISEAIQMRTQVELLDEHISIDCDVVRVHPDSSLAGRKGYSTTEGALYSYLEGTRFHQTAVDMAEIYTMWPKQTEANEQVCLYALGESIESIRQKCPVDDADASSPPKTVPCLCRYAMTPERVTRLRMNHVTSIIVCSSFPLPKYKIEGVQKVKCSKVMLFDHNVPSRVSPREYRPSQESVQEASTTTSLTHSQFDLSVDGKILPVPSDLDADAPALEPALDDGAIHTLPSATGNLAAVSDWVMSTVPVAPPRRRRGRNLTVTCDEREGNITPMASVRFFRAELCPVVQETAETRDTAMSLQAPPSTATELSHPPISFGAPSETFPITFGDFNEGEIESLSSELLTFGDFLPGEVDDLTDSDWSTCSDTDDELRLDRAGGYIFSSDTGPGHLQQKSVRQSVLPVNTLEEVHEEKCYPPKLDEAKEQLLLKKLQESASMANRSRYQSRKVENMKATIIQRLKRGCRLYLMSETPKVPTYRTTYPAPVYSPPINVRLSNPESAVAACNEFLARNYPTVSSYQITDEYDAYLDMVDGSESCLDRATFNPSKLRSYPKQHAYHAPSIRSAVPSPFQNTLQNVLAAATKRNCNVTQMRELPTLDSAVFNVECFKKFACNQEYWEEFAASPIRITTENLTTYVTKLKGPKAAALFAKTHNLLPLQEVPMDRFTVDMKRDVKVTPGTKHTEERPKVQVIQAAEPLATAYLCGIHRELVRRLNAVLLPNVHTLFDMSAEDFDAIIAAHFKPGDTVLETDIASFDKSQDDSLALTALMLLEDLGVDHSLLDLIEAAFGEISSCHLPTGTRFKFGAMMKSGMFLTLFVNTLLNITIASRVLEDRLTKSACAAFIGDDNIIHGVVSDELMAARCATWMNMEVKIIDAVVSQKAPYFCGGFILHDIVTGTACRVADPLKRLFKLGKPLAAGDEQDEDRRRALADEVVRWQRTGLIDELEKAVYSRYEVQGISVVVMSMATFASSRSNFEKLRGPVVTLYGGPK
# [10] = test system: Mayaro virus; assay: as §2, with “activity against MAYV infected in” for “activity against CHIKV infected in”, “assessed as log reduction in” for “assessed as reduction in”, “viral titer at 0.01 to 100 uM incubated with” for “viral titer incubated with”; format: functional; details: dose 0.01-100 µM; time 25 hrs
# [11] = test system: Mayaro virus; assay: as §2, with “MAYV” for “CHIKV”; format: functional, organism-based; details: dose 0.01-100 µM, time 25.0 hrs
# [12] = molecular target: T1, Polyprotein P1234; assay: Inhibition of N-terminal 6-His/SUMO-tagged CHIKV 181/25 nsP2 extracted from Escherichia coli Rosetta 2 preincubated for 30 mins followed by ATP addition measured after 1 hr by ADP-Glo assay
# [13] = molecular target: Polyprotein P1234 (Chikungunya virus (strain S27-African prototype) (CHIKV)) (UniProt Q8JUX6); assay: Inhibition of N-terminal 6-His/SUMO-tagged CHIKV 181/25 nsP2 extracted from Escherichia coli Rosetta 2 assessed as decrease in nsP2 ATPase activity up to 100 uM measured for 5 to 10 mins in presence of [alpha-32P]-ATP by TLC method; details: time 5-10 min
# Target sequence in this assay (Q8JUX6 whole entry): as above
# [14] = molecular target: Polyprotein P1234 (Chikungunya virus (strain S27-African prototype) (CHIKV)) (UniProt Q8JUX6); assay: Binding affinity to N-terminal 6-His/SUMO-tagged CHIKV 181/25 nsP2 extracted from Escherichia coli Rosetta 2 assessed as decrease in Vmax up to 2.5 uM in presence of [alpha-32P]-ATP by TLC method
# Target sequence in this assay (Q8JUX6 whole entry): as above
# [15] = molecular target: Polyprotein P1234 (Chikungunya virus (strain S27-African prototype) (CHIKV)) (UniProt Q8JUX6); assay: Binding affinity to N-terminal 6-His/SUMO-tagged CHIKV 181/25 nsP2 extracted from Escherichia coli Rosetta 2 using fluorescein-labeled dsRNA template incubated for 30 mins by fluorescence polarization assay
# Target sequence in this assay (Q8JUX6 whole entry): as above
# [16] = Aqueous solubility of compound; format: physicochemical; details: buffer
# [17] = Selectivity ratio of pEC50 for antiviral activity against VEEV expressing nLuc to pEC50 for antiviral activity against CHIKV 181/25 expressing nLuc-capsid gene infected in human MRC5 cells; format: functional
# T1 sequence (Q8JUX6 536-1333 limits assumed): as the sequence (Q8JUX6 536-1333 limits assumed) above
SMILES,solubility kinetic [2],inhibition [3],Activity [4],inhibition at 40 µM [1],EC50 [5],IC50 [12],also measured
CS(=O)(=O)NCC1CCOC2(CCN(C(=O)Cc3ccccc3)CC2)C1 (centres undefined),200 µM,inactive,Non-toxic,–,–,–,inhibition [1]: inactive
CCCCCCOc1ccc(C(=O)NCC2CCOC3(CCN(C(=O)C4(c5ccccc5)CCCC4)CC3)C2)cc1 (centres undefined),< 1 µM,inactive,Non-toxic,70%,> 39.8 µM,–,–
O=C(N1CCC2(CC1)CC(CN1CCCCS1(=O)=O)CCO2)C1(c2ccccc2)CCCC1 (centres undefined),> 220 µM,–,Non-toxic,–,0.126 µM,0.501 µM,inhibition [6]: Dose-dependent-effect; IC50 [7]: 0.9 µM; Activity [8]: Dose-dependent-effect; Activity [9]: Active; Activity [10]: 0.01 10^5No_unit; Activity [11]: Dose-dependent-effect; inhibition [13]: Active; Ic50 Of Compound Was Same At Both # And # Mins; Activity [14]: Active; Activity [15]: Active; Compound Did Not Involve Direct Displacement Of Rna Substrate Suggesting Allosteric Mechanism Of Helicase Inhibition
CC(C)NC(=O)NCC1CCOC2(CCN(C(=O)C3(c4ccccc4)CCCC3)CC2)C1 (centres undefined),180 µM,50%,Non-toxic,–,15.8 µM,> 39.8 µM,–
NCC1CCOC2(CCN(C(=O)C3(c4ccccc4)CCCC3)CC2)C1 (centres undefined),160 µM,inactive,Non-toxic,60%,> 39.8 µM,–,–
CN(C)S(=O)(=O)NCC1CCOC2(CCN(C(=O)C3(c4ccccc4)CCCO3)CC2)C1 (centres undefined),200 µM,inactive,Non-toxic,–,–,–,inhibition [1]: inactive
COc1ccc(C2(C(=O)N3CCC4(CC3)CC(CNS(C)(=O)=O)CCO4)CCCC2)cc1 (centres undefined),–,inactive,Non-toxic,–,–,–,inhibition [1]: inactive
CC(C)(C(=O)N1CCC2(CC1)CC(CNS(C)(=O)=O)CCO2)c1ccccc1 (centres undefined),220 µM,40%,Non-toxic,50%,> 39.8 µM,> 39.8 µM,–
CS(=O)(=O)NCC1CCOC2(CCN(C(=O)C3(c4ccc(Cl)cc4)CCCC3)CC2)C1 (centres undefined),–,inactive,Non-toxic,70%,> 39.8 µM,–,–
Cc1ccnc(OC2CCOC3(CCN(C(=O)C4(c5ccccc5)CCCC4)CC3)C2)c1 (centres undefined),–,40%,Non-toxic,–,12.6 µM,> 39.8 µM,solubility [16]: 14 µM; Ratio [17]: 10
O=C(NCC1CCOC2(CCN(C(=O)C3(c4ccccc4)CCCC3)CC2)C1)C1CC1 (centres undefined),160 µM,80%,Non-toxic,–,3.98 µM,> 39.8 µM,–
CCS(=O)(=O)NCC1CCOC2(CCN(C(=O)C3(c4ccccc4)CCCC3)CC2)C1 (centres undefined),230 µM,70%,Non-toxic,–,3.16 µM,> 39.8 µM,–
Cc1ccc(C2(C(=O)N3CCC4(CC3)CC(CNS(C)(=O)=O)CCO4)CCCC2)cc1 (centres undefined),–,inactive,Non-toxic,–,–,–,inhibition [1]: inactive
O=C(N1CCC2(CC1)CC(CN1CCCCS1(=O)=O)CCO2)C1(c2ccc(F)cc2)CCCC1 (centres undefined),190 µM,80%,Non-toxic,90%,> 39.8 µM,> 39.8 µM,–
CS(=O)(=O)NCC1CCOC2(CCN(C(=O)C3(c4ccccc4)CCCCC3)CC2)C1 (centres undefined),230 µM,80%,Non-toxic,–,15.8 µM,> 39.8 µM,–
NC(=O)NCC1CCOC2(CCN(C(=O)C3(c4ccccc4)CCCC3)CC2)C1 (centres undefined),190 µM,50%,Non-toxic,–,12.6 µM,> 39.8 µM,–

# From ChEMBL document CHEMBL6178023 (J Med Chem, 2025)
